In PubChem BioAssay (NCI) one finds GI50 and TGI data, which are given here for seven compounds.

Among the test systems are DU-145 prostate; OVCAR-4 ovarian; UACC-257 melanoma; 786-0 renal; MOLT-4 leukemia; NCI-H522 lung; HT29 colon; MDA-MB-435; UO-31 renal; NCI-H23 lung.
Common to all, as to test: NCI anticancer screen, dose series, 48 h

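Five concentrations, 48 hours, 96-well plates. The concentration for 50% growth inhibition is given as GI50. TGI marks complete inhibition of growth.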 Bounds are passed on as bounds.

For the compound `COC(=O)Nc1nc2ccc(S(=O)(=O)c3ccc(NC(=O)Nc4cc(C(F)(F)F)ccc4F)cc3)cc2[nH]1`, the GI50 in the assay with DU-145 prostate, in the assay on OVCAR-4 ovarian, in the assay on UACC-257 melanoma, with 786-0 renal, in the assay on MOLT-4 leukemia and with NCI-H522 lung was greater than 25 µM throughout. Also, the GI50 with HT29 colon, in the assay with MDA-MB-435, in the assay with UO-31 renal and in the assay on NCI-H23 lung was greater than 25 µM in each case. Also, the TGI in the assay on DU-145 prostate, with OVCAR-4 ovarian, in the assay with UACC-257 melanoma, with 786-0 renal, with MOLT-4 leukemia and in the assay on NCI-H522 lung was greater than 25 µM each time. Moreover, the TGI in the assay on HT29 colon, in the assay with MDA-MB-435, in the assay on UO-31 renal and in the assay with NCI-H23 lung was greater than 25 µM in each case.

On to `NCCSC(C[N+](=O)[O-])c1ccccc1Cl` (stereo not given), for which the GI50 in the assay with DU-145 prostate is 1.92 µM; in the assay with OVCAR-4 ovarian, 12.1 µM; in the assay with UACC-257 melanoma, 1.91 µM; with 786-0 renal, 2.16 µM; in the assay with MOLT-4 leukemia, 10.2 µM; in the assay on NCI-H522 lung, 24.9 µM. The GI50 in the assay with HT29 colon is 3.15 µM; in the assay with MDA-MB-435, 1.87 µM; in the assay on UO-31 renal, 3.46 µM; in the assay with NCI-H23 lung it was 3.37 µM. The TGI in the assay with DU-145 prostate was 3.62 µM; in the assay on OVCAR-4 ovarian it was 30.1 µM; in the assay on UACC-257 melanoma it was 4.31 µM; in the assay with 786-0 renal, 4.33 µM; in the assay with MOLT-4 leukemia it was greater than 25.8 µM; in the assay on NCI-H522 lung, greater than 56.1 µM. The TGI with HT29 colon stood at 10.9 µM; with MDA-MB-435, 5.42 µM; in the assay on UO-31 renal, 10.1 µM; in the assay on NCI-H23 lung it was 12 µM.

Take `Oc1ccc(O)c2c1C1(Cl)C(Cl)=C(Cl)C2(Cl)C1(Cl)Cl`: the GI50 is 3.45 µM with DU-145 prostate; 8.32 µM with OVCAR-4 ovarian; 3.97 µM with UACC-257 melanoma; 7.84 µM in the assay with 786-0 renal; 2.87 µM in the assay on MOLT-4 leukemia; 3.55 µM in the assay on NCI-H522 lung. Moreover, the GI50 was 6.44 µM in the assay on HT29 colon, 1.7 µM in the assay with MDA-MB-435, 2.43 µM with UO-31 renal and 5.17 µM in the assay with NCI-H23 lung. For the same compound, the TGI with DU-145 prostate was 12.9 µM; in the assay on OVCAR-4 ovarian it was greater than 100 µM; in the assay with UACC-257 melanoma, 17.4 µM; in the assay on 786-0 renal it was 22.4 µM; in the assay on MOLT-4 leukemia, 19 µM; with NCI-H522 lung it was 12.1 µM. Moreover, the TGI with HT29 colon amounted to 17.9 µM; in the assay with MDA-MB-435, 4.86 µM; in the assay on UO-31 renal, 10.6 µM; with NCI-H23 lung, 22.1 µM.

Consider `COC1OC(C(C)O)C2OC(C)(C)OC12` (stereo not given), for which the TGI in the assay on DU-145 prostate, in the assay with OVCAR-4 ovarian, in the assay with UACC-257 melanoma, in the assay on 786-0 renal, in the assay with MOLT-4 leukemia and in the assay with NCI-H522 lung was greater than 100 µM throughout. The TGI in the assay with HT29 colon, in the assay with MDA-MB-435, in the assay on UO-31 renal and in the assay with NCI-H23 lung was greater than 100 µM throughout.

Take `Nc1ccccc1C#C/C=C\C#Cc1ccccc1F`: the GI50 in the assay on DU-145 prostate was 5.49 µM; with OVCAR-4 ovarian, 24.4 µM; in the assay with UACC-257 melanoma, 15.7 µM; in the assay with 786-0 renal, 9.28 µM; in the assay with MOLT-4 leukemia it was 2.13 µM; in the assay on NCI-H522 lung, 6.74 µM. Also, the GI50 with HT29 colon is 5.06 µM; with MDA-MB-435, 2.05 µM; with UO-31 renal, 11.9 µM; in the assay with NCI-H23 lung, 10.4 µM. Besides, the TGI was 28 µM in the assay with DU-145 prostate; greater than 100 µM in the assay with OVCAR-4 ovarian; 47.5 µM in the assay with UACC-257 melanoma; 23.6 µM in the assay with 786-0 renal; greater than 100 µM with MOLT-4 leukemia; 23.5 µM with NCI-H522 lung. Moreover, the TGI in the assay on HT29 colon is 47.6 µM; in the assay with MDA-MB-435 it was 4.44 µM; in the assay with UO-31 renal it was 35 µM; in the assay on NCI-H23 lung, 26.6 µM.

`Oc1ccc(Cn2c(-c3ccc(O)cc3)nc3ccccc32)cc1`: the TGI in the assay with DU-145 prostate, in the assay on OVCAR-4 ovarian, with UACC-257 melanoma, in the assay on 786-0 renal, with MOLT-4 leukemia and in the assay on NCI-H522 lung was greater than 100 µM each time. The TGI with HT29 colon, in the assay on MDA-MB-435, in the assay on UO-31 renal and with NCI-H23 lung was greater than 100 µM in each case.

`CC(C)=CCc1cc(C2COc3cc4c(c(O)c3C2=O)C=CC(C)(C)O4)c(O)cc1O` (stereo not given): the TGI was 27.9 µM in the assay on DU-145 prostate; 24.2 µM in the assay on OVCAR-4 ovarian; 27.4 µM in the assay with UACC-257 melanoma; 36.7 µM in the assay on 786-0 renal; 20.7 µM with MOLT-4 leukemia; 25.9 µM in the assay on NCI-H522 lung. For the same compound, the TGI in the assay with HT29 colon worked out at 31.6 µM; in the assay with MDA-MB-435 it was 33.4 µM; in the assay with UO-31 renal, 26 µM; with NCI-H23 lung it was 32.6 µM.
